Data reported in US20260169011A1, “METHODS AND COMPOSITIONS FOR PROVIDING CUSTOMIZED NUTRITIONAL SUPPLEMENTS” (Vibrant Holdings LLC, priority 2023, published 2026).
Where two headings read alike, the source gives them in different places.

Columns and labels:
[1] = cited from earlier work
[2] = Vibrant Absorption Factor (VAF): difference of post- and pre-supplementation nutrient values divided by ATB dosage
From the text: Improvement in nutrition can be determined by comparing the nutrient values in serum, RBC, and WBCs post-nutritional supplementation to the nutrient values in serum, RBC, and WBCs pre-nutritional supplementation. Based on the improvement, the change in the nutrient levels can be attributed to the per milligram dosage of the supplemented nutrients. The assessed nutritional change is the “Vibrant Absorption factor (VAF (see Equation (1) below). The VAF can be used to determine the subject's utilization of the supplemented nutrients, as determined by the difference in extracellular and intracellular nutrient values before and after supplementation. Based on the subject's utility or absorption of the nutrients, the dosage amount of the nutrient needed to be supplemented or increased to effect change of the subject's nutrient values into the optimum nutrient zone can be assessed. In various embodiments, the VAF is determined by administering a pre-determined formulation, referred to herein as the Absorption Testing Blend.
Next, the ATB is administered to the individual for a predefined period at step 320a, after which nutrient levels and the genetic nutrient profile are re-evaluated, to obtain the post-supplementation biomarker values at step 330.
This includes determining the VAF based on the difference between post- and pre-supplementation biomarker values, which is divided by the ATB dosage.
The assessed change is called the VAF. The VAF is used to understand how the individual's body is utilizing these nutrients, depending on the difference in extracellular and intracellular nutrient values before and after supplementation. Based on the body's utility or absorption of the nutrients, the amount of nutrients needed to be supplemented to alter the individual's nutrient values into the optimum nutrient zone is understood. The VAF calculations help in determining the appropriate dosages of nutrients required in the ‘customized blend.’

[3] = NutriPro test: serum, RBC and WBC nutrient values before and after ATB / customized blend; type: in vivo, human; details: for Follow-up Biomarker level / Follow-up Nutrient Level: after customized blend; for Pre-test biomarker level: before ATB; for Follow-up Nutrient Level / Actual Nutrient Value (ANV): person three; for Actual Nutrient Value (ANV): before customized blend
From the text: The method for providing a nutritional supplement for a subject as disclosed herein is based on a comprehensive panel that assesses intracellular and extracellular levels of at least or up to 41 nutrients. […] Blood analysis using the method disclosed herein tests for nutrient levels in serum, red blood cells (RBCs), and white blood cells (WBCs). Additional genetic testing can assess patients' predispositions toward nutrient deficiencies. Based on the blood and genetic analysis results, a subsequent supplementation diet comprising supplements and food sources can be designed and implemented. The subject can be a human subject.
In some embodiments, the detection method is mass spectrometry.
The ‘NutriPro’ test is used to assess serum (extracellular), RBC, and WBC (intracellular) nutrient values along with genetic testing for any predispositions with could be affecting nutrient values in the body. If required, additional tests such as the gut zoomer, cardiovascular health, thyroid test, kidney function test, liver function test, etc, are carried out. FIG. 1 provides a schematic diagram of the process of the NutriPro test from the individual subject to the creation of customized nutritional blends.
The ATB is given to the individual for nutritional supplementation, and blood testing for nutrients in serum, RBC, and WBC is carried out after 3 or 6 months.
The assessed change is called the VAF.
After testing, the individual takes the ATB or the customized blend for the amount of time indicated.

[4] = Extracellular (serum) nutrient levels by mass spectrometry (LC-MS, GC-MS, ICP-MS); details: Level: Serum, person
From the text: In some embodiments, the detection method assesses nutrients both in extracellular plasma and intracellular in RBC and WBC. In some embodiments, the detection method is mass spectroscopy-based. The extracellular and intracellular nutrient levels provide a comprehensive analysis of a subject's nutrient status, reflecting not only the intake levels but also the absorption levels into the cells.
In some aspects, the extracellular nutrient levels provide a snapshot of the status of nutrient baseline levels at a given time. It is a reflection of a person's diet over a narrow period of time. In contrast, the intracellular levels of nutrients provide information on the absorbed levels of nutrients, thus accounting for factors such as aging, lifestyle, chronic illness, medication, etc. that could interfere with absorption and can change the functional nutritional levels.
In some embodiments, the detection method is mass spectrometry. In some embodiments, the detection method is Liquid chromatography-mass spectrometry (LC-MS), Gas chromatography-mass spectrometry (GC-MS), or Inductively coupled plasma-mass-spectrometry (ICP-MS). In some embodiments, the detection method is Liquid chromatography-mass spectrometry (LC-MS). In some embodiments, the detection method is Gas chromatography-mass spectrometry (GC-MS). In some embodiments, the detection method is Inductively coupled plasma-mass-spectrometry (ICP-MS).
In some embodiments, the method provided herein evaluates nutrient levels, both in extracellular serum and inside (intracellular) red blood cells (RBC) and/or white blood cells (WBC). The extracellular nutrient levels provide a snapshot of the status of nutrient baseline levels at a given time. These extracellular nutrient levels are a reflection of a person's diet over a narrow period of time. In contrast, RBCs have a normal lifespan of 120 days, and thus intracellular assessments for nutrients in RBCs can provide information on nutrients over longer periods. Additionally, the intracellular levels of nutrients provide information on the absorbed levels of nutrients, thus accounting for factors such as, but not limited to, aging, lifestyle, chronic illness, and medication, that can interfere with absorption and can change the functional nutritional levels. Moreover, actual nutrient utilization occurs inside the cell owing to cellular metabolic processes. At times, nutrients could be present in serum, but poor cellular uptake may result in cells being devoid of these nutrients, thus giving rise to nutrient deficiencies owing to affected cellular activities. […] As a result, it is important to assess nutrients intracellularly in addition to extracellularly. Thus, the intracellular assessment provides information on cellular uptake and utilization of nutrients at the most fundamental level, enabling understanding of the root cause of nutrient deficiencies.
The subject individual fills out the health questionnaire (PHQ) which helps establishes factors such as symptoms, complications, comorbidities, and ongoing medications. The subject's blood is drawn and the extracellular serum and intracellular blood cells are tested for nutritional deficiencies via mass spectroscopy (e.g., Liquid chromatography-mass spectrometry (LC-MS), Gas chromatography-mass spectrometry (GC-MS), or Inductively coupled plasma-mass-spectrometry (ICP-MS)).

[5] = person two, level: Questionnaire
[6] = person one, cells, unit not given

For `[Mn]` [Manganese, Mn 55], the UTL ([1]; upper tolerable limit) is listed as 11 mg/day.
`[Mn+2]` [Manganese] gave a VAF ([2]; person two, cells) of 7.684, a VAF ([2]; person two, serum) of 0.2316 and a Post-test biomarker level ([3]; person two, cells, after ATB) of 7.8 pg/MM WBC. The “Follow-up Biomarker level” value ([3]; person two, cells) was 67.5 pg/MM WBC, the Pre-test biomarker level ([3]; person two, cells) was 0.5 pg/MM WBC and the Post-test biomarker level ([3]; person two, serum, after ATB) was 0.62 ng/mL. For the same compound, the “Follow-up Biomarker level” value ([3]; person two, serum) was 2.1 ng/mL, the Pre-test biomarker level ([3]; person two, serum) was 0.4 ng/mL and the UTL ([1]; Table 19, person two) was 11 mg/day.
In the case of `O[C@H]1[C@H](O)[C@@H](O)[C@H](O)[C@@H](O)[C@H]1O` [Myo-Inositol], the VAF ([2]; person two, serum) is reported as 0.55, the Post-test biomarker level ([3]; female, human, in vivo) is reported as 12.9 nmol/mL and the “Follow-up Biomarker level” value ([3]; person two, serum) is reported as 47.5 nmol/mL. The Pre-test biomarker level ([3]; person two, serum) was 7.4 nmol/mL.
In the case of `[K+]` [Potassium], the “Follow-up Nutrient Level” value ([4]; after customized blend) is reported as 3.4 mmol/L and the “Actual Nutrient Value (ANV)” value ([4]; before customized blend) is reported as 2.8 mmol/L.
For `[76Se]` [Selenium, Se 76], the UTL ([1]; upper tolerable limit) is given as 0.4 mg/day.
For `N[C@@H](CO)C(=O)O` [Serine], the “Follow-up Nutrient Level” value ([3]; serum) is listed as 131 nmol/mL, the “Actual Nutrient Value (ANV)” value ([3]; serum) is listed as 62 nmol/mL and the UTL ([1]; Table 20, person three) is listed as 12000 mg/day.
In the case of `[Na]` [Sodium], the UTL ([1]; upper tolerable limit) is listed as 2,300 mg/day.
For `CC(C)[C@H](N)C(=O)O` [Valine], the “Follow-up Nutrient Level” value ([3]; serum) was 332 nmol/mL and the “Actual Nutrient Value (ANV)” value ([3]; serum) was 26 nmol/mL.
For `CC1=C(/C=C/C(C)=C/C=C/C(C)=C/CO)C(C)(C)CCC1` [Vitamin A (Retinol)], the UTL ([1]; upper tolerable limit) is listed as 10,000 IU/day.
In the case of `Cc1cc2nc3c(=O)[nH]c(=O)nc-3n(C[C@H](O)[C@H](O)[C@H](O)CO)c2cc1C` [Vitamin B2], the “Follow-up Nutrient Level” value ([3]; serum) is reported as 231 µg/L and the “Actual Nutrient Value (ANV)” value ([3]; serum) is reported as 5.5 µg/L.
With `O=C(O)c1cccnc1` [Vitamin B3] the VAF ([2]; person one, serum) was 0.7, the Post-test biomarker level ([3]; person one, serum, after ATB) was 3.9 ng/mL and the “Follow-up Biomarker level” value ([3]; person one, serum) was 70.1 ng/mL. The Pre-test biomarker level ([3]; person one, serum) was 1.1 ng/mL and the UTL ([1]; Table 18, person one) was 35 mg/day.
In the case of `O=C1O[C@H]([C@@H](O)CO)C(O)=C1O` [Vitamin C (L-Ascorbic acid)], the UTL ([1]; upper tolerable limit) is given as 2000 mg/day.
In the case of `Cc1c(C)c2c(c(C)c1O)CC[C@@](C)(CCC[C@H](C)CCC[C@H](C)CCCC(C)C)O2` [Vitamin E (alpha-tocopherol)], the UTL ([1]; upper tolerable limit) is given as 1,100 IU/day.
With `CC1=C(C/C=C(\C)CCC[C@H](C)CCC[C@H](C)CCCC(C)C)C(=O)c2ccccc2C1=O` [Vitamin K1] the VAF ([2]; person two, serum) was 0.081, the “Follow-up Nutrient Level” value ([3]; serum) was 12.3 µg/L and the “Actual Nutrient Value (ANV)” value ([3]; serum) was 0.07 µg/L. For the same compound, the Post-test biomarker level ([3]; person two, serum, after ATB) was 1.7 ng/mL, the “Follow-up Biomarker level” value ([3]; person two, serum) was 12.4 ng/mL and the Pre-test biomarker level ([3]; person two, serum) was 0.08 ng/mL.
For `[Zn]` [Zinc, Zn 67], the UTL ([1]; upper tolerable limit) is listed as 40 mg/day.
Compound `[Zn]` [Zinc] has a VAF ([2]; person one, cells) of 1.333, a VAF [2, 5] of 0.2333 and a Post-test biomarker level ([3]; person one, cells, after ATB) of 4.8 ng/MM WBC. The “Follow-up Biomarker level” value ([3]; person one, cells) was 14.1 ng/MM WBC, the Pre-test biomarker level ([3]; person one, cells) was 2.8 ng/MM WBC and the “Follow-up Nutrient Level” value ([3]; serum) was 1550 µg/L. For the same compound, the “Actual Nutrient Value (ANV)” value ([3]; serum) was 500 µg/L, the Post-test biomarker level ([3]; person two, level: Questionnaire, after ATB) was 1100 ng/mL and the “Follow-up Biomarker level” value [3, 5] was 1470 ng/mL. For the same compound, the Pre-test biomarker level [3, 5] was 750 ng/mL, the UTL ([1]; Table 18, person one) was 40 mg/day and the UTL ([1]; Table 19, person two) was 40 mg/day. The UTL ([1]; Table 20, person three) was 40 mg/day.
For Vitamin A, the VAF ([2]; person two, cells) was 0.0019, the VAF ([2]; person two, serum) was 0.025 and the “Follow-up Nutrient Level” value ([3]; cells) was 14.4 pg/MM WBC. For the same compound, the “Actual Nutrient Value (ANV)” value ([3]; cells) was 0.4 pg/MM WBC, the “Follow-up Nutrient Level” value ([3]; serum) was 1280 µg/L and the “Actual Nutrient Value (ANV)” value ([3]; serum) was 350 µg/L. The Post-test biomarker level ([3]; person two, cells, after ATB) was 2.1 pg/MM WBC, the “Follow-up Biomarker level” value ([3]; person two, cells) was 14.5 pg/MM WBC and the Pre-test biomarker level ([3]; person two, cells) was 0.2 pg/MM WBC. The Post-test biomarker level ([3]; person two, serum, after ATB) was 470 ng/mL, the “Follow-up Biomarker level” value ([3]; person two, serum) was 1290 ng/mL and the Pre-test biomarker level ([3]; person two, serum) was 220 ng/mL. The UTL ([1]; Table 19, person two) was 10,000 IU/day and the UTL ([1]; Table 20, person three) was 10,000 IU/day.
Work on Vitamin B12 yielded a VAF ([2]; person one, cells) of 3.75, a VAF ([2]; person one, serum) of 250 and a VAF ([2]; person two, serum) of 132.5. The Post-test biomarker level ([3]; person one, cells, after ATB, unit not given) was 1.7, the “Follow-up Biomarker level” value [3, 6] was 10.3 and the Pre-test biomarker level [3, 6] was 0.2. For the same compound, the Post-test biomarker level ([3]; person one, serum, after ATB) was 0.205 ng/mL, the “Follow-up Biomarker level” value ([3]; person one, serum) was 1.17 ng/mL and the Pre-test biomarker level ([3]; person one, serum) was 0.105 ng/mL. For the same compound, the Post-test biomarker level ([3]; person two, serum, after ATB) was 0.147 ng/mL, the “Follow-up Biomarker level” value ([3]; person two, serum) was 1.122 ng/mL and the Pre-test biomarker level ([3]; person two, serum) was 0.094 ng/mL.
In the case of Vitamin K2, the VAF ([2]; person one, serum) is reported as 0.0007, the Post-test biomarker level ([3]; person one, serum, after ATB) is reported as 0.017 ng/mL and the “Follow-up Biomarker level” value ([3]; person one, serum) is reported as 0.1017 ng/mL. It also gave a Pre-test biomarker level ([3]; person one, serum) of 0.01 ng/mL.
